From US8716284B2, “Adamantyl diamide derivatives and uses of same” (H. Lundbeck A/S, priority 2008, dated 2014)

biological target: T1, rat metabotropic glutamate receptor 5 (mGluR5) (Rattus norvegicus, UniProt P31424); test: Calcium mobilization assay (FLIPR) for negative or positive allosteric activity, HEK 293 cells; assay type: cell-based; conditions: HEK293, negative allosteric modulation, inhibition of EC80 glutamate response; read-out: FLIPR maximum inhibition
T1 construct: expressed in transfected cells; host or cells: HEK 293
Method in brief: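 HEK 293 cells stably expressing rat mGluR5, Fluo-4 loaded in HEPES-buffered HBSS pH 7.4 with 0.1% BSA and probenecid. Compound added with EC20 (potentiation) or EC80 (inhibition) glutamate; fluorescence read over 3 min at room temperature. Basal-subtracted maximum fluorescence change fitted to Hill equation.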

T1 sequence (P31424 21-1171 isoform P31424-2 limits assumed): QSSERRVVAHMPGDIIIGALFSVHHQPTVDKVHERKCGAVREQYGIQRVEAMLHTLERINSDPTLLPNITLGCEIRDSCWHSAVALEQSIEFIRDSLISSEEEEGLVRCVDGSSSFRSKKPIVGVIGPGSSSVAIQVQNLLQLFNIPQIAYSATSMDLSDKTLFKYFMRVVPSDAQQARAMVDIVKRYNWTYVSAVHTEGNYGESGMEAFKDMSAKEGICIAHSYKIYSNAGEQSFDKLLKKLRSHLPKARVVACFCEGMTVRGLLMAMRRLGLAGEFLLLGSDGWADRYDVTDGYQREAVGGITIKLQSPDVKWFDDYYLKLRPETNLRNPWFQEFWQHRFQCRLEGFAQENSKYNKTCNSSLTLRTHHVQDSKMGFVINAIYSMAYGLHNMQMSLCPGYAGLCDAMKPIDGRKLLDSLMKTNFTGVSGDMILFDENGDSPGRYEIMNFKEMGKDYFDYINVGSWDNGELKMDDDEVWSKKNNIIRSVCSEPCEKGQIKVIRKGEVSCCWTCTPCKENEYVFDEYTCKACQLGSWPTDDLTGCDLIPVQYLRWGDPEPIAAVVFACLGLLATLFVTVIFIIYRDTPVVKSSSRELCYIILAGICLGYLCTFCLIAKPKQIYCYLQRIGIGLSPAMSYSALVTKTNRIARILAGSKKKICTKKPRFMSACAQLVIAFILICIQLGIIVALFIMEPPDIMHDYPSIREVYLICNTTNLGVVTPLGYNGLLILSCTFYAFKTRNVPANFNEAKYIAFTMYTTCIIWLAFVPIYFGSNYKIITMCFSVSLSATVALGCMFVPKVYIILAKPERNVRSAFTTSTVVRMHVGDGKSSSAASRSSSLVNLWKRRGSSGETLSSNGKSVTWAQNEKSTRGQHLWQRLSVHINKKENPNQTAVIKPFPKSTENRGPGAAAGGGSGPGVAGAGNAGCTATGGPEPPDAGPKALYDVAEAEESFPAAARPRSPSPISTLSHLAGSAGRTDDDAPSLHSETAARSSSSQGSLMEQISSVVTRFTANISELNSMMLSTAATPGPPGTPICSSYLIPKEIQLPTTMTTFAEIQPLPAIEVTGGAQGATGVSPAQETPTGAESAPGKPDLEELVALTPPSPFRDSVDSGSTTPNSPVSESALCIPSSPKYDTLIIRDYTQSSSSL

Cc1cccc(C(=O)NC23CC4CC(CC(NC(=O)c5ccn6ccnc6c5)(C4)C2)C3)n1 [Example 51, Imidazo[1,2-a]pyridine-7-carboxylic acid {3-[(6-methyl-pyridine-2-carbonyl)-amino]-adamantan-1-yl}-amide] and O=C(NC12CC3CC(C1)CC(NC(=O)c1ccn4ccnc4c1)(C3)C2)c1cccc(F)c1 [Example 99, Imidazo[1,2-a]pyridine-7-carboxylic acid [3-(3-fluoro-benzoylamino)-adamantan-1-yl]-amide] fall in the same range of Emax: 63 to 99% for the first, 63 to 99% for the second.

Cc1ccn2cc(C(=O)NC34CC5CC(CC(NC(=O)c6cccc(F)c6)(C5)C3)C4)nc2c1 [Example 104, 7-Methyl-imidazo[1,2-a]pyridine-2-carboxylic acid [3-(3-fluoro-benzoylamino)-adamantan-1-yl]-amide] and CN1CCN(c2cccc(C(=O)NC34CC5CC(CC(NC(=O)c6cccc(F)c6)(C5)C3)C4)n2)CC1 [Example 216, 6-(4-Methyl-piperazin-1-yl)-pyridine-2-carboxylic acid [3-(3-fluoro-benzoylamino)-adamantan-1-yl]-amide] fall in the same range of Emax: 63 to 99% for the first, 63 to 99% for the second.

O=C(NC12CC3CC(C1)CC(NC(=O)c1cc(F)ccn1)(C3)C2)c1ccccn1 [Example 108, 4-Fluoro-pyridine-2-carboxylic acid{3-[(pyridine-2-carbonyl)-amino]-adamantan-1-yl}-amide] and Cc1cccc(C(=O)NC23CC4CC(CC(NC(=O)c5cc(F)ccn5)(C4)C2)C3)n1 [Example 125, 6-Methyl-pyridine-2-carboxylic acid {3-[(4-fluoropyridine-2-carbonyl)-amino]-adamantan-1-yl}-amide] fall in the same range of Emax: 70 to 99% for the first, 70 to 99% for the second.

Cc1cccc(C(=O)NC23CC4CC(CC(NC(=O)c5cc(C6CC6)on5)(C4)C2)C3)n1 [Example 26, 6-Methyl-pyridine-2-carboxylic acid {3-[(5-cyclopropyl-isoxazole-3-carbonyl)-amino]-adamantan-1-yl}-amide] and Cc1cccc(C(=O)NC23CC4CC(C2)CC(NC(=O)c2cc(C)n(C)n2)(C4)C3)n1 [Example 127, 6-Methyl-pyridine-2-carboxylic acid {3-[(1,5-dimethyl-1H-pyrazole-3-carbonyl)-amino]-adamantan-1-yl}-amide] cannot be ordered by Emax: 63 to 99% for the first, 70 to 99% for the second.

Cc1cccc(C(=O)NC23CC4CC(CC(NC(=O)c5ccc6ocnc6c5)(C4)C2)C3)n1 [Example 122, Benzoxazole-5-carboxylic acid {3-[(6-methyl-pyridine-2-carbonyl)-amino]-adamantan-1-yl}-amide] and Cc1cccc(C(=O)NC23CC4CC(CC(NC(=O)c5cccc(N(C)C)c5)(C4)C2)C3)n1 [Example 114, 6-Methyl-pyridine-2-carboxylic acid [3-(3-dimethyl-amino-benzoylamino)-adamantan-1-yl]-amide] fall in the same range of Emax: 70 to 99% for the first, 70 to 99% for the second.

Cc1ccnc(C(=O)NC23CC4CC(CC(NC(=O)c5cnccn5)(C4)C2)C3)n1 [Example 189, 4-Methyl-pyrimidine-2-carboxylic acid {3-[(pyrazine-2-carbonyl)-amino]-adamantan-1-yl}-amide] and Cc1cccc(C(=O)NC23CC4CC(C2)CC(NC(=O)c2nccc(C)n2)(C4)C3)n1 [Example 141, 4-Methyl-pyrimidine-2-carboxylic acid {3-[(6-methyl-pyridine-2-carbonyl)-amino]-adamantan-1-yl}-amide] cannot be ordered by Emax: 63 to 99% for the first, 70 to 99% for the second.

COc1cccc(C(=O)NC23CC4CC(C2)CC(NC(=O)c2cccc(C)n2)(C4)C3)c1 [Example 43, 6-Methyl-pyridine-2-carboxylic acid [3-(3-methoxy-benzoylamino)-adamantan-1-yl]-amide] and CC(=O)c1cccc(C(=O)NC23CC4CC(CC(NC(=O)c5cccc(C)n5)(C4)C2)C3)n1 [Example 142, 6-Methyl-pyridine-2-carboxylic acid {3-[(6-acetyl-pyridine-2-carbonyl)-amino]-adamantan-1-yl}-amide] cannot be ordered by Emax: 63 to 99% for the first, 70 to 99% for the second.

Cn1ccc(C(=O)NC23CC4CC(CC(NC(=O)c5ccccn5)(C4)C2)C3)n1 [Example 76, Pyridine-2-carboxylic acid {3-[(1-methyl-1H-pyrazole-3-carbonyl)-amino]-adamantan-1-yl}-amide] and Cc1cc(C(=O)NC23CC4CC(CC(NC(=O)c5ccccn5)(C4)C2)C3)nn1C [Example 109, Pyridine-2-carboxylic acid {3-[(1,5-dimethyl-1H-pyrazole-3-carbonyl)-amino]-adamantan-1-yl}-amide] cannot be ordered by Emax: 63 to 99% for the first, 70 to 99% for the second.

Cc1cncc(C(=O)NC23CC4CC(CC(NC(=O)c5ccc(F)c(C)c5)(C4)C2)C3)n1 [Example 166, 6-Methyl-pyrazine-2-carboxylic acid [3-(4-fluoro-3-methyl-benzoylamino)-adamantan-1-yl]-amide] and Cc1cncc(C(=O)NC23CC4CC(CC(NC(=O)c5ccc(F)c(Cl)c5)(C4)C2)C3)n1 [Example 149, 6-Methyl-pyrazine-2-carboxylic acid [3-(3-chloro-4-fluoro-benzoylamino)-adamantan-1-yl]-amide] cannot be ordered by Emax: 63 to 99% for the first, 70 to 99% for the second.

Cc1cccc(C(=O)NC23CC4CC(C2)CC(NC(=O)c2cccc(-n5ccnc5)n2)(C4)C3)n1 [Example 254, 6-Imidazol-1-yl-pyridine-2-carboxylic acid {3-[(6-methyl-pyridine-2-carbonyl)-amino]-adamantan-1-yl}-amide] and Cc1cccc(C(=O)NC23CC4CC(C2)CC(NC(=O)c2cccc(N5CCC(O)C5)n2)(C4)C3)n1 (stereo not shown) [Example 205, 6-(3-Hydroxy-pyrrolidin-1-yl)-pyridine-2-carboxylic acid{3-[(6-methyl-pyridine-2-carbonyl)-amino]-adamantan-1-yl}-amide] fall in the same range of Emax: 63 to 99% for the first, 63 to 99% for the second.

Cc1cccc(C(=O)NC23CC4CC(C2)CC(NC(=O)c2cccc(NCCCN(C)C)n2)(C4)C3)n1 [Example 236, 6-(3-Dimethylamino-propylamino)-pyridine-2-carboxylic acid {3-[(6-methyl-pyridine-2-carbonyl)-amino]-adamantan-1-yl}-amide] and Cc1cccc(C(=O)NC23CC4CC(C2)CC(NC(=O)c2cccc(N5CCC[C@@H]5CO)n2)(C4)C3)n1 [Example 238, 6-((R)-2-Hydroxymethyl-pyrrolidin-1-yl)-pyridine-2-carboxylic acid {3-[(6-methyl-pyridine-2-carbonyl)-amino]-adamantan-1-yl}-amide] fall in the same range of Emax: 63 to 99% for the first, 63 to 99% for the second.

Cc1cccc(C(=O)NC23CC4CC(C2)CC(NC(=O)C2CCC2)(C4)C3)n1 [Example 46, 6-Methyl-pyridine-2-carboxylic acid [3-(cyclobutanecarbonyl-amino)-adamantan-1-yl]-amide] and O=C(NC12CC3CC(C1)CC(NC(=O)C1CCCC1)(C3)C2)c1ccccn1 [Example 85, Pyridine-2-carboxylic acid [3-(cyclopentanecarbonyl-amino)-adamantan-1-yl]-amide] fall in the same range of Emax: 63 to 99% for the first, 63 to 99% for the second.

Cc1cccc(C(=O)NC23CC4CC(C2)CC(NC(=O)c2nn(C)c5ccccc25)(C4)C3)n1 [Example 37, 1-Methyl-1H-indazole-3-carboxylic acid {3-[(6-methyl-pyridine-2-carbonyl)-amino]-adamantan-1-yl}-amide] and Cc1cccc(C(=O)NC23CC4CC(C2)CC(NC(=O)c2nc5ccccc5s2)(C4)C3)n1 [Example 36, Benzothiazole-2-carboxylic acid {3-[(6-methyl-pyridine-2-carbonyl)-amino]-adamantan-1-yl}-amide] fall in the same range of Emax: 63 to 99% for the first, 63 to 99% for the second.

Cc1cccc(C(=O)NC23CC4CC(C2)CC(NC(=O)c2cccc(N5CCOCC5)n2)(C4)C3)n1 [Example 22, 6-Morpholin-4-yl-pyridine-2-carboxylic acid-{3-[(6-methyl-pyridine-2-carbonyl)-amino]-adamantan-1-yl}-amide] and Cc1cccc(C(=O)NC23CC4CC(C2)CC(NC(=O)c2ncccc2F)(C4)C3)n1 [Example 129, 6-Methyl-pyridine-2-carboxylic acid {3-[(3-fluoro-pyridine-2-carbonyl)-amino]-adamantan-1-yl}-amide] cannot be ordered by Emax: 63 to 99% for the first, 70 to 99% for the second.

Cc1cncc(C(=O)NC23CC4CC(C2)CC(NC(=O)c2nccc(C(F)(F)F)n2)(C4)C3)n1 [Example 181, 4-Trifluoromethyl-pyrimidine-2-carboxylic acid {3-[(6-methyl-pyrazine-2-carbonyl)-amino]-adamantan-1-yl}-amide] and Cc1cncc(C(=O)NC23CC4CC(CC(NC(=O)c5cc(F)ccn5)(C4)C2)C3)n1 [Example 171, 6-Methyl-pyrazine-2-carboxylic acid {3-[(4-fluoro-pyridine-2-carbonyl)-amino]-adamantan-1-yl}-amide] fall in the same range of Emax: 63 to 99% for the first, 63 to 99% for the second.

Cc1cncc(C(=O)NC23CC4CC(CC(NC(=O)c5cccc(OC(F)F)c5)(C4)C2)C3)n1 [Example 162, 6-Methyl-pyrazine-2-carboxylic acid [3-(3-difluoro-methoxy-benzoylamino)-adamantan-1-yl]-amide] and COc1ccnc(C(=O)NC23CC4CC(C2)CC(NC(=O)c2cncc(C)n2)(C4)C3)c1 [Example 153, 6-Methyl-pyrazine-2-carboxylic acid {3-[(4-methoxy-pyridine-2-carbonyl)-amino]-adamantan-1-yl}-amide] fall in the same range of Emax: 70 to 99% for the first, 70 to 99% for the second.

O=C(NC12CC3CC(C1)CC(NC(=O)c1ccccn1)(C3)C2)c1ccccc1 [Example 71, Pyridine-2-carboxylic acid (3-benzoylamino-adamantan-1-yl)-amide] and Cn1nc(C(=O)NC23CC4CC(CC(NC(=O)c5ccccn5)(C4)C2)C3)cc1-c1ccco1 [Example 9, Pyridine-2-carboxylic acid {3-[(5-furan-2-yl-1-methyl-1H-pyrazole-3-carbonyl)-amino]-adamantan-1-yl}-amide] cannot be ordered by Emax: 63 to 99% for the first, 90 to 99% for the second.
